Source: US20070073039A1, “Peptides that inhibit viral infections” (priority 2005, published 2007)
Like-named read-outs stand apart in the source and are kept apart here.

What was measured:
MTT cytotoxicity assay = assay type: cell-based; conditions: human, hepatocyte cell lines, read-out: LD50 (MTT cytotoxicity)
Method: Peptide cytotoxicity was measured by MTT cytotoxicity assay based on the protocol provided in the ATCC MTT assay kit (Cat #30-1010K). In brief, 5000-10,000 cells were seeded per well in a 96 well plate. Following overnight growth, 100 μL fresh medium plus 20 μL of 2-fold serially diluted peptide was added. Media without peptides was added to at least 3 wells as untreated controls. The cells were then incubated for 72 hours at 37° C., 5% CO2. After this incubation, 1/10 volume of MTT solution ([…] in PBS) was added to each well, and the cells were returned to the incubator. Two hours later, the medium was removed, 150 μL DMSO was added to dissolve the purple precipitate formazan, and the plate was shaken at 150 rpm for 10 minutes. Absorbance at 570 nm less background at 670 nm is a reliable measure of […]. Cytotoxicity (LD50) of individual peptides was defined as the peptide concentration that caused 50% cell death.

[1] = Serum stability of L- and D-type peptides (10% FBS, 37° C., antiviral readout); assay type: in vitro ADME
Excerpt: Peptides composed of L-amino acids are susceptible to proteolysis, which could shorten their half-life and, thus, their biological activity. To examine this possibility and to determine if specific peptide-viral protein interactions mediate antiviral activity, peptide 1 was synthesized using all D-amino acids, purified to >95% homogeneity, and its antiviral activity and serum stability were compared with a similarly pure preparation of the L-type version of peptide #1. Both L- and D-type peptides were diluted 1:100 in complete growth medium (10% FBS) and mixed with an equal volume of viral supernatant.
In addition, to compare the serum stability of the L- and D-type peptides, the diluted peptide was incubated at 37° C. for 1 hour, 2 hours and 4 hours before mixing with viral supernatant. The virus-peptide mixture was then used to infect Huh-7.5.1 cells (MOI=0.1). After adsorption for 4 hours at 37° C., the virus-peptide inoculum was removed. The cells were washed 2 times, overlaid with 120 μL fresh growth medium and incubated at 37° C. for 3 days. Cells were lysed and subjected to RNA analysis. The HCV RNA transcript level was measured by real time RT-QPCR and normalized to cellular GAPDH levels. […] Thus, in addition to low immunogenicity and possible oral bioavailability, peptides composed of D-amino acids have the potential therapeutic advantage of enhanced serum stability.

Dengue-2 [2] = assay: Dengue-2 infection of Vero cells, Intracellular FACS Assay; assay type: cell-based; conditions: 20 μM
Method: Intracellular FACS Assay: Vero cells were seeded for 24 h pre-infection in 6-well plates. Cells were exposed to Dengue-2 in the presence of increasing concentrations of peptide (or DMSO as control). Viruses and peptide were washed away 2 h post-infection. Cells were taken for intracellular staining 3 days post-infection. Cells were stained with appropriate isotype control, Dengue Env, Dengue capsid or tubulin antibodies. Cells were analyzed by FACS.

HCV [3] = assay: Median effective concentration (EC50) by intracellular HCV RNA RT-QPCR; assay type: cell-based, Hepatitis C virus (JFH-1); conditions: FIG. 12B-C; Huh-7.5.1 cells, MOI 0.1; 3 days; read-out: EC50 of the L- and D-forms of peptide 1
Method: (§1) To determine the median effective concentration (EC50) of peptide #1, peptide stock solution (3.6 mM in DMSO) was serially 2-fold diluted in DMSO. An aliquot of peptide from each dilution was then diluted 1:100 in complete growth medium and mixed with equal volume of virus supernatant. The virus-peptide mixture was then used to infect Huh-7.5.1 cells (MOI=0.1). After adsorption for 4 hours at 37° C., the virus-peptide inoculum was removed. The cells were washed 2 times, overlaid with 120 μL fresh growth medium and incubated at 37° C. for 3 days. Cells were lysed and subjected to RNA analysis. The HCV RNA transcript level was measured by real time RT-QPCR and normalized to cellular GAPDH levels. The inhibition of HCV infection was calculated by comparing the intracellular HCV RNA transcript between the peptide treatment and solvent control.
as §1, with “(EC50) of the L- and D-form” for “(EC50)”, “serially diluted” for “serially”, “2-fold” for “2-fold diluted”

[4] = Preliminary in vivo toxicity in mice
Method: As a preliminary measurement of the in vivo cytotoxicity of the peptides 1, 2 and 3 (see Table 4) a group of three mice (BALB/c mice, 7 weeks old, about 23 g) were each injected with 92 μg L-type peptide 1 ( ˜4 mg/kg) in 200 μL PBS (spun 14,000 rpm for 3 minutes before injection). In the control group, each of three mice was given 200 μL PBS containing 5% DMSO. The mice were monitored for acute toxicity during the first 3 hours after injection.
No change in appearance, activity or behavior was observed. The mice were then weighed on days 0, 3, 5, 7 and 10. Peptide-injected mice gained weight at the same rate as the controls.

HCV [5] = assay: Intracellular HCV RNA by real time RT-QPCR after infection of Huh-7.5.1 cells with and without peptide; assay type: cell-based, Hepatitis C virus (JFH-1)
Method: To accurately quantify the inhibitory effect of the selected peptides on HCV infection, intracellular HCV RNA was measured after infection by real time RT-QPCR with and without peptide treatment. The peptide stock solution was diluted 1:100 and mixed with equal volume of viral supernatant (propagated from day 18 virus preparation post transfection) to a final concentration approximately 20 μM. The virus with peptide or 0.5% DMSO solvent control was then used to infect Huh-7.5.1 cells at a multiplicity of infection (MOI) of 0.1. After an adsorption for 4 hours at 37° C., the inoculum was removed. The cells were washed 2 times, overlaid with 120 μL fresh growth medium and incubated at 37° C. At the indicated time points, total cellular RNA was isolated by the guanidine thiocyanate method. The HCV RNA transcript level was measured by real time RT-QPCR with the primers 5′—
normalized to cellular GAPDH levels.
To define the antiviral action of peptide #1 (SEQ ID NO:43), the antiviral activity of a series of N-terminal and C-terminal truncations of peptide 1 was analyzed using the focus reduction assay and by measuring the reduction in intracellular HCV RNA as described.

HCV [6] = assay: Binding/attachment/uptake of HCV RNA by Huh-7.5.1 cells; assay type: cell-based, Hepatitis C virus (JFH-1); conditions: 18 μM; 4 hours at 37° C.; cell-associated HCV RNA
Method: To define the mechanism of antiviral activity of peptide #1, its ability to prevent the binding/attachment/uptake by cells of viral RNA in an infectious inoculum cells was examined. Huh-7.5.1 cells were seeded at 8000 cells per well in a 96-well plate. Sixteen hours later, the cells were incubated with HCV at MOI=0.1 in the presence or absence of peptide at a concentration of 18 μM. After adsorption for 4 hours at 37° C., the virus-peptide inoculum was removed. The cells were washed 2 times, lysed and subjected to RNA analysis. The HCV RNA transcript level was measured by real time quantitative polymerase chain reaction (RT-QPCR) assay and normalized to cellular GAPDH levels. Inhibitory activity was quantified by comparing the amount of cell-associated HCV RNA in cells exposed to the virus-peptide inocula versus the virus-DMSO control.

HCV [7] = assay: HCV focus reduction assay; assay type: cell-based, Hepatitis C virus (JFH-1)
Method: To identify peptides that display antiviral activity against HCV infection, the peptide library was screened by an HCV focus reduction assay. The peptides were constituted in 100% DMSO at a final concentration 10 mg/mL, and stored in −20° C. The peptide stock solution was diluted 1:200 to a final concentration approximately 20 μM in complete DMEM growth medium containing 50 focus forming units (ffu) of HCV. The virus-peptide mixture was transferred to Huh-7.5.1 cells at a density of 8000 cells per well in a 96-well plate. After adsorption for 4 hours at 37° C., the inoculum was removed. The cells were washed 2 times, overlaid with 120 μL fresh growth medium and incubated at 37° C. After 3 days of culture, the cells were fixed with paraformaldehyde and immunostained with antibody against HCV nonstructural protein NS5A. The numbers of HCV foci were counted under fluorescent microscopy and the result is expressed as percentage (%) of mock with no peptide treatment but containing solvent 0.5% DMSO.
To determine whether the antiviral activity of peptide 1 is dependent on its primary amino acid sequence, four derivative peptides from peptide 1 were synthesized to a purity >95%. The four derivatives having the same composition of amino acids included (1) the reversed the sequence of peptide 1 (also called retro-peptide); (2) scrambled hydrophobic amino acids; (3) scrambled hydrophilic amino acids; and (4) a derivative in which the aspartic acid residues (D) were replaced with proline residues (P). The antiviral activity of the peptides was examined by HCV focus reduction assay at three peptide concentrations: 18 μM, 6 μM and 2 μM, as described above.

Dengue-2 [8] = assay: Dengue-2 infection of Vero cells, Enzyme-linked Immunosorbent Assay; assay type: cell-based; conditions: for Inhibition of Dengue Infection, α-Capsid 9A7 / Inhibition of Dengue Infection, α-DEN ENV: Vero cells, 5 days
Method: Enzyme-linked Immunosorbent Assay. Vero cells (80,000 cells/well/ml) were seeded for 24 h pre-infection in 24-well plates. Cells were exposed to Dengue-2 (derived from Vero cells) in the presence of increasing concentration of peptide (or DMSO as control). Viruses and peptide were not removed (cells were not washed) throughout the incubation. Infection was analyzed after 5 days using ELISA that measured the amounts of Dengue-2 capsid released in the supernatant of infected Vero cells.

Dengue-2 [9] = assay: as above; assay type: cell-based; conditions: 1.25 μM, 5 days

Compound: CC[C@@H](C)[C@@H](NC(=O)[C@@H](CC(=O)O)NC(=O)[C@@H](CCCNC(=N)N)NC(=O)[C@@H](CC(C)C)NC(=O)[C@@H](Cc1c[nH]c2ccccc12)NC(=O)[C@H](N)CO)C(=O)N[C@H](Cc1c[nH]c2ccccc12)C(=O)N[C@H](CC(=O)O)C(=O)N[C@H](Cc1c[nH]c2ccccc12)C(=O)N[C@@H](C(=O)N[C@H](CS)C(=O)N[C@H](CCC(=O)O)C(=O)N[C@@H](C(=O)N[C@H](CC(C)C)C(=O)N[C@H](CO)C(=O)N[C@H](CC(=O)O)C(=O)N[C@H](Cc1ccccc1)C(=O)N[C@H](CCCCN)C(=O)O)C(C)C)[C@H](C)CC [D-2022 peptide]
- CC50 at 72 h (MTT cytotoxicity assay; with FBS): 36.8 µM
- CC50 at 72 h (MTT cytotoxicity assay; without FBS): 3.7 µM
- Time entirely stable in 10% FBS at 37° C. [1]: at least 4 hours
- % of Dead cells PI (Dengue-2 [2]; propidium iodide staining, Vero cells 3 days post-infection): 3.83%
- EC50 (HCV [3]): ~1 µM

Compound: CTMLVCGDDLVVICESAG [Peptide 2]
- In vivo toxicity observation ([4]; 92 μg ( ˜4 mg/kg) in 200 μL PBS, acute toxicity first 3 hours, weight to day 10): Peptides 1, 2 and 3 are Nontoxic in C57BL/6 Mice
- Weight(g) (d.0) ([4]; day 0, ˜4 mg/kg injected): 25.3 g
- Weight(g) (d.3) ([4]; day 3): 25.6 g
- Weight(g) (d.5) ([4]; day 5): 25.9 g
- Weight(g) (d.7) ([4]; day 7): 25.9 g
- Weight(g) (d.10) ([4]; day 10): 25.6 g
- HCV RNA fold inhibition 24 h 25 μM (HCV [5]; 24 h, 25 μM, Huh-7.5.1 cells, MOI 0.1, normalized to GAPDH): 86 fold
- HCV RNA fold inhibition 72 h 25 μM (HCV [5]; 72 h, 25 μM, Huh-7.5.1 cells, MOI 0.1, normalized to GAPDH): 40 fold
- Blocking of viral binding/attachment/uptake (HCV [6]): significantly blocks viral binding/attachment/uptake
- Inhibition of HCV infection (HCV [7]; cell culture model of HCV infection): strongly inhibit HCV infection
- Fold Inhibition (HCV [7]; inhibition of HCV infection, peptide approximately 20 μM, Huh-7.5.1 cells, 3 days): 100.0 fold
- % of Mock (HCV [7]; number of HCV foci as % of mock (0.5% DMSO), peptide approximately 20 μM, Huh-7.5.1 cells, 3 days): 1.0%
- Fold inhibition of HCV infection (HCV [7]; peptide library screen, approximately 20 μM): more than ten-fold

Compound: SWLRDIWDWICEVL [^C-14mer]
- Fold Inhibition on HCV RNA (24 h) (HCV [5]; 24 h, working concentration 18.4-27.5 μM per peptide): 20274.7 fold
- Fold Inhibition on HCV RNA (72 h) (HCV [5]; 72 h, working concentration 18.4-27.5 μM per peptide): 237172.4 fold
- Inhibition of Dengue viral infection as detected by FACS (Dengue-2 [2]; FIG. 18): ~100%
- Inhibition of Dengue Infection, α-Capsid 9A7 (Dengue-2 [8]; 1.25 μM): 11.4%
- Inhibition of Dengue Infection, α-Capsid 9A7 (Dengue-2 [8]; 5 μM): 22.7%
- Inhibition of Dengue Infection, α-DEN ENV (Dengue-2 [8]; 5 μM): 29.65%
- Inhibition of Dengue Infection, α-Capsid 9A7 (Dengue-2 [8]; 20 μM): 98.3%
- Inhibition of Dengue Infection, α-DEN ENV (Dengue-2 [8]; 20 μM): 97.8%
- Inhibition of Dengue viral infection as detected by ELISA (Dengue-2 [8]; FIG. 17, 20 μM): ~100%
- Inhibition of Dengue Infection, α-DEN ENV (Dengue-2 [9]): 0%
- Focus Reduction (72 h) (HCV [7]; 72 h, working concentration 18.4-27.5 μM per peptide, Mock 51): 0
